Values quoted from earlier work in US20130137635A1, “TRYPTOPHAN HYDROXYLASE INHIBITORS FOR THE TREATMENT OF METASTATIC BONE DISEASE” (LEXICON PHARMACEUTICALS, INC., priority 2010, published 2013).

Experiments:
[1] = system: cholangiocarcinoma tumors; settings: in vivo xenograft model of cholangiocarcinoma tumors; pCPA treatment
carcinoid syndrome = settings: patients; reported in the 1960's

N[C@@H](Cc1ccc(Cl)cc1)C(=O)O (racemic) [pCPA, para-chlorophenylalanine]
tumor growth [1]: suppressed tumor growth | effect on symptoms of carcinoid syndrome (carcinoid syndrome): alleviated some of the symptoms of carcinoid syndrome | side effects on administration (carcinoid syndrome): unacceptable side effects
